According to publication PMC5903342 (Oxidative Medicine and Cellular Longevity, 2018):
Like-named read-outs stand apart in the source and are kept apart here.

Key:
[1] = tested on: Salmonella enterica serovar typhimurium TA104; assay: Antimutagenicity assay (Salmonella/microsome), strain TA104; assay type: cell-based; conditions: atorvastatin 0 μM
Text: (§1) Salmonella enterica serovar typhimurium (S. typhimurium) strains TA100, TA1535, TA104, and TA102 from the authors' laboratory stock were used as described by Maron and Ames in the antimutagenicity assay.
(§2) We carried out the coexposure protocol of the antimutagenicity assay to investigate the potential of the compound to protect against alkylation-mediated genetic mutation in S. typhimurium TA100, TA102, TA104, and TA1535 strains according to Ajith and Soja. The test proceeded both in the absence and presence of a metabolic activation system (4% S9 mix, Aroclor preinduced, from MOLTOX Inc., USA). DMSO 1% served as the negative control. […] The mixtures were incubated in a shaker at 37°C (preincubation) under light protection. After a total of 60 min of cotreatment, the mixtures were added to and mixed with 2 mL top agar containing 0.05 mmol/L L-histidine and D-biotin for the S. typhimurium strains. Each of these was then spread on a minimal glucose agar (1.5% agar, Vogel-Bonner medium E, containing 2% glucose) plate. After the top agar solidified, the plates were incubated at 37°C for 60–72 h. Each tester strain was assayed in triplicate and repeated at least twice, and the number of revertant colonies was counted for each tester strain and treatment group. The counts of revertant colonies were obtained to build a dose-response curve and calculate the percentage of reduction.

[2] = tested on: Salmonella enterica serovar typhimurium TA102; assay: Antimutagenicity assay (Salmonella/microsome), strain TA102; assay type: cell-based; conditions: atorvastatin 0 μM
Text: as §1, §2

[3] = tested on: Salmonella enterica serovar typhimurium TA1535; assay: Antimutagenicity assay (Salmonella/microsome), strain TA1535; assay type: cell-based; conditions: atorvastatin 0 μM
Text: as §1, §2

[4] = tested on: Salmonella enterica serovar typhimurium TA100; assay: Antimutagenicity assay (Salmonella/microsome), strain TA100 (co-, pre- and posttreatment); assay type: cell-based; conditions: atorvastatin 0 μM
in vitro = assay type: cell-based; conditions: human, HepG2, 24 h of exposure
Description: (§3) Human hepatocellular carcinoma cells (HepG2) obtained from the American Type Culture Collection (Manassas, VA) were cultured in a minimum Eagle's medium (MEM, Gibco®, USA) containing 10% fetal bovine serum (FBS) plus 100 μg/mL streptomycin and 100 μg/mL penicillin at 37°C in a 5% CO2 atmosphere. Logarithmic-phase cells were used in all the experiments [9].
Fresh HepG2 cells were seeded at a density of 1 × 10^5/well.

HepG2 cells [5] = assay: Flow cytometry cell cycle analysis; assay type: cell-based, Human; conditions: 24 h
Description: The cells (1 × 10^5) were washed in PBS solution and centrifuged at 400 ×g for 5 min, and after, the cells were suspended in DNA staining solution (0.3% Triton X-100 and 50 μg/mL propidium iodide (PI) in a 43 mM citrate buffer), as previously described. After 45 minutes of treatment with 50 μg/mL ribonuclease A (Sigma, EUA), the PI fluorescence was determined (10,000 events per sample) in a Gallios flow cytometer (Beckman Coulter, USA). Data were analyzed by the Summit v4.3 software. The experiments were done at least three times, and statistical analysis was performed by one-way ANOVA followed by a Tukey's post hoc test.

HepG2 cells [6] = tested on: HepG2 cells
Description: as §3
The HepG2 cells were seeded at a density of 1 × 10^5/mL into 24-well plates (1 mL/well). […] DMSO 1% was used as the negative control. After exposure to the compounds, the cells were incubated for 24 h more and the cytogenetic studies were carried out in triplicate and N = 3 [14]. In order to determine the mitotic index and the number of cells with micronuclei, the medium was replaced by a cold methanol-glacial acetic acid (3 : 1) fixative for 30 min and the cells were then rinsed with distilled water for 2 min and air dried. […] To determine the mitotic index and the number of cells with micronuclei, 2000 cells per well (6000 cells per concentration) were analyzed using fluorescence microscopy (Reichert Univar) with an excitation wavelength of 350 nm. […] Statistical differences between the groups were analyzed by a one-way ANOVA (p < 0.01) and Tukey's post hoc test.

[7] = DPPH free radical scavenging assay; assay type: biochemical; conditions: absorbance at 517 nm
Description: The free radical scavenging activity was measured by following microplate procedures as previously described. One hundred microliters of the sample dilutions with five concentration levels (varying from 0 to 2000 μM in DMSO) was added to two identical groups of wells in a 96-well microplate. The same volume of 0.1 mM DPPH-methanol solution was added to each well of one group (samples), and methanol ([…]) was added to the other group (blanks). The control was prepared by mixing the DPPH-methanol solution with the sample solvent or butylated hydroxytoluene (BHT). The solutions were mixed thoroughly, covered, and allowed to react in the dark at room temperature for 40 min. The absorbance was measured at 517 nm using a microplate reader (Quant, BioTek Instruments Inc.), and the scavenging activity was calculated from the absorbance values according to the following equation: […]. The antioxidant properties of the samples were expressed as half the maximal effective concentrations (EC50) obtained by interpolation from the linear regression analysis. BHT was used as the positive control.

CHO-K1 cells = tested on: CHO-K1 cells; design: method as in PMID 15988137; conditions: statins from 10 μM to 100 μM; cited from earlier work
[8] = tested on: Salmonella enterica serovar typhimurium TA98 and TA100 strains; conditions: sodium azide or 4-nitro-o-phenylenediamine, TA98 and TA100, absence of metabolic activation; cited from earlier work
[9] = TA100, cotreatment protocol, −S9, MMS (100 μM) only
[10] = TA100, posttreatment protocol, −S9, MMS (100 μM) only
[11] = TA100, pretreatment protocol, −S9, MMS (100 μM) only
[12] = TA100, cotreatment protocol, +S9, CPA (150 μM) only
[13] = TA100, posttreatment protocol, +S9, CPA (150 μM) only
[14] = TA100, pretreatment protocol, +S9, CPA (150 μM) only

Structure (SMILES): COS(C)(=O)=O [MMS, methyl methanesulfonate]
- His+ (revertant colonies) ([1]; TA104, −S9, MMS (100 μM) only): 897 ± 55
- MI (mutagenicity index) ([1]; TA104, −S9, MMS (100 μM) only): 2.24
- His+ (revertant colonies) ([2]; TA102, −S9, MMS (100 μM) only): 578 ± 55
- MI (mutagenicity index) ([2]; TA102, −S9, MMS (100 μM) only): 2.31
- His+ (revertant colonies) ([3]; TA1535, −S9, MMS (100 μM) only): 71 ± 5
- MI (mutagenicity index) ([3]; TA1535, −S9, MMS (100 μM) only): 2.84
- His+ (revertant colonies) [4, 9]: 212 ± 11
- MI (mutagenicity index) [4, 9]: 2.14
- His+ (revertant colonies) [4, 10]: 264 ± 31
- MI (mutagenicity index) [4, 10]: 2.09
- His+ (revertant colonies) [4, 11]: 230 ± 23
- MI (mutagenicity index) [4, 11]: 2.26
- CC50 (in vitro; read-out: LC50 (the source's name)): 18.7 ± 6.67 µM
- polyploid subpopulation (HepG2 cells [5]; human, 20 μM): 15%
- sub-G1 percentage of cells (HepG2 cells [5]; human, 20 μM): 19%
- Micronucleus formation, fold in comparison to the negative control (HepG2 cells [6]; only MMS-exposed cells (10.0 μM MMS), 6 and 24 h): 6-7 fold

Structure (SMILES): O=P1(N(CCCl)CCCl)NCCCO1 (stereo not drawn) [CPA, cyclophosphamide]
- His+ (revertant colonies) ([1]; TA104, +S9, CPA (150 μM) only): 1092 ± 85
- MI (mutagenicity index) ([1]; TA104, +S9, CPA (150 μM) only): 2.40
- His+ (revertant colonies) ([2]; TA102, +S9, CPA (150 μM) only): 588 ± 85
- MI (mutagenicity index) ([2]; TA102, +S9, CPA (150 μM) only): 2.1
- His+ (revertant colonies) ([3]; TA1535, +S9, CPA (150 μM) only): 56 ± 6
- MI (mutagenicity index) ([3]; TA1535, +S9, CPA (150 μM) only): 2.80
- His+ (revertant colonies) [4, 12]: 239 ± 30
- MI (mutagenicity index) [4, 12]: 2.13
- His+ (revertant colonies) [4, 13]: 278 ± 33
- MI (mutagenicity index) [4, 13]: 2.66
- His+ (revertant colonies) [4, 14]: 244 ± 8
- MI (mutagenicity index) [4, 14]: 2.44
- CC50 at 24 h (in vitro; read-out: LC50): 98.7 ± 11.5 µM
- sub-G1 percentage of cells (HepG2 cells [5]; CPA only (no AVA)): 17%
- polyploid subpopulation (HepG2 cells [5]; exposure just to CPA): 13%
- Micronucleus formation, fold in comparison to the negative control (HepG2 cells [6]; 60.0 μM CPA only, 6 h and 24 h): 5-6 fold

Structure (SMILES): Cc1cc(C(C)(C)C)c(O)c(C(C)(C)C)c1 [BHT, butylated hydroxytoluene]
- EC50 [7]: 83 ± 2 µM

Structure (SMILES): CC[C@H](C)C(=O)O[C@H]1C[C@H](O)C=C2C=C[C@H](C)[C@H](CC[C@@H](O)C[C@@H](O)CC(=O)O)[C@H]21 [pravastatin]
- Micronucleus formation after exposure to bleomycin (CHO-K1 cells): reduced micronucleus formation

Structure (SMILES): CC(C)n1c(/C=C/C(O)CC(O)CC(=O)O)c(-c2ccc(F)cc2)c2ccccc21 (stereo not drawn) [fluvastatin]
- Micronucleus formation after exposure to bleomycin (CHO-K1 cells): reduced micronucleus formation

Structure (SMILES): CC[C@H](C)C(=O)O[C@H]1C[C@@H](C)C=C2C=C[C@H](C)[C@H](CC[C@@H]3C[C@@H](O)CC(=O)O3)[C@H]21 [LOVA, lovastatin]
- Antimutagenic (chemopreventive) effect against direct mutagens [8]: able to exert chemopreventive effects
